Source: article PMC10303200 (ACS Central Science, 2023)

Assays:
Assay type in all cases: binding
GAL-7 [1] = molecular target: T1, GAL-7 (Homo sapiens, UniProt P47929); assay: Direct native ESI-MS of the GAL-7 homodimer with a mixture of ten glycans (G2, G5-G13), 200 mM ammonium acetate, pH 6.9.; settings: SD, n = 8; read-out: Kd (nMS), Table S4
T1 construct: gene LGALS7; homodimer (monomer MW 14.94 kDa)

GAL-3C [2] = molecular target: T2, GAL-3C (Homo sapiens, UniProt P17931); assay: Direct native ESI-MS with a mixture of ten glycans (G2, G5-G13), 200 mM ammonium acetate, pH 6.9.; set-up: gene LGALS3; C-terminal carbohydrate recognition domain fragment, residues 107-250; settings: SD, n = 8; read-out: Kd (nMS), Table S3
GAL-7 [3] = molecular target: T1, GAL-7; assay: COIN-nMS of the GAL-7 homodimer with a mixture of ten glycans (G2, G5-G13), 200 mM ammonium acetate, pH 6.9.; settings: SD, n = 8; read-out: Kd (COIN-nMS), Table S4
GAL-3C [4] = molecular target: T2, GAL-3C; assay: COIN-nMS with a mixture of ten glycans (G2, G5-G13), 200 mM ammonium acetate, pH 6.9.; set-up: gene LGALS3; C-terminal carbohydrate recognition domain fragment, residues 107-250; settings: SD, n = 8; read-out: Kd (COIN-nMS), Table S3
Sig7-Fc [5] = molecular target: T3, Sig7-Fc (Homo sapiens, UniProt Q9Y286); assay: COIN-CaR-nMS with purified oligosaccharides listed beside the library glycans, 200 mM ammonium acetate, pH 6.9.; set-up: gene SIGLEC7; residues 1-345, human IgG1 Fc fusion and C-terminal His6, from CHO cells, MW 150 kDa
Target sequence in this assay (Q9Y286 1-345): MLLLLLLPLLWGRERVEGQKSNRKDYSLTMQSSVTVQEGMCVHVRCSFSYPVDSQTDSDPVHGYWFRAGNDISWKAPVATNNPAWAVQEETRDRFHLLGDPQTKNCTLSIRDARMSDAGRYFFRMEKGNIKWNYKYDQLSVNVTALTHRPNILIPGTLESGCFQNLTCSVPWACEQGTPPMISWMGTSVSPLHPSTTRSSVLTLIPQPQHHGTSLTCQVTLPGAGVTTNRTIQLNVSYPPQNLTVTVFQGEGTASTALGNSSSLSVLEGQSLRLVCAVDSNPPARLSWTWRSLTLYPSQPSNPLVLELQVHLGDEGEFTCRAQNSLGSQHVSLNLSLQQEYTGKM

Sig7-Fc [6] = molecular target: T3, Sig7-Fc; assay: COIN-CaR-nMS; set-up: Siglec 7-Fc (Sig7-Fc, residue 1–345, MW 150 kDa); His6 (C); made in house; host or cells: wild-type CHO cells
Target sequence in this assay (Q9Y286 19-345): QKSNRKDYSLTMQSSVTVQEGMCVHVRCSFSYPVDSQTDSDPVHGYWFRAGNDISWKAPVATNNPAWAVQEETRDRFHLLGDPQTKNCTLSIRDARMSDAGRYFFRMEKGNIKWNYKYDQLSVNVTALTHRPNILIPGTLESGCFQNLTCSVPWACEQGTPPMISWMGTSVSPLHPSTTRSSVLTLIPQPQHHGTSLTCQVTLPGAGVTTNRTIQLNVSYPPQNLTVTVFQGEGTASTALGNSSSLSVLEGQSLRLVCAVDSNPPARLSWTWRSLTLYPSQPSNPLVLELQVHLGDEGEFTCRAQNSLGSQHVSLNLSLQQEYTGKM

[7] = SD; read-out: Kd, purified oligosaccharides in Tables S12, S13, S18, S19
[8] = read-out: Kd, purified oligosaccharides in Tables S12, S13, S18, S19; SD
[9] = N-glycan natural libraries and purified oligosaccharides, pH 6.9, read-out: Kd

T1 sequence (P47929 whole entry): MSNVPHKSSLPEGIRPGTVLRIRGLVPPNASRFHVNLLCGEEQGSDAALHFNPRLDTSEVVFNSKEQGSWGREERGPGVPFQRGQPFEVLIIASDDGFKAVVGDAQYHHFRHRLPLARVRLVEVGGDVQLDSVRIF
T2 sequence (P17931 107-250): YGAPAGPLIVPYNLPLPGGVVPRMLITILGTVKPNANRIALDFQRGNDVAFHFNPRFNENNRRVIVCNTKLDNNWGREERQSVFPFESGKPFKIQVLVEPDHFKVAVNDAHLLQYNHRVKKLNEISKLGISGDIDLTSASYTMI

Compound | Kd (GAL-7 [1]) [µM] | Kd (GAL-3C [2]) [µM] | Kd (GAL-7 [3]) [µM] | Kd (GAL-3C [4]) [µM] | other results
CC(=O)N[C@H]1[C@H](O[C@H]2[C@@H](O)[C@@H](CO)O[C@@H](O[C@H]3[C@H](O[C@@H]4O[C@@H](C)[C@@H](O)[C@@H](O)[C@@H]4O)[C@@H](O)C(O)O[C@@H]3CO)[C@@H]2O)O[C@H](CO)[C@@H](O)[C@@H]1O[C@@H]1O[C@H](CO)[C@H](O)[C@H](O)[C@H]1O (stereo partly drawn) [G6, β-D-Gal(1→3)-β-D-GlcNAc(1→3)-β-D-Gal(1→4)-[α-L-Fuc(1→3)]-β-D-Glc] | 232 | 26.8 | 278 | 101 | –
CC(=O)N[C@H]1[C@H](O[C@H]2[C@@H](O)[C@@H](CO)O[C@@H](O[C@H]3[C@H](O)[C@@H](NC(C)=O)[C@H](O[C@H]4[C@@H](O)[C@@H](CO)O[C@@H](O[C@H]5[C@H](O)[C@@H](O)C(O)O[C@@H]5CO)[C@@H]4O)O[C@@H]3CO)[C@@H]2O)O[C@H](CO)[C@@H](O[C@@H]2O[C@H](CO)[C@H](O)[C@H](O)[C@H]2O)[C@@H]1O (stereo partly drawn) [G7, β-D-Gal-(1→4)-β-D-GlcNAc(1→3)-β-D-Gal(1→4)-β-D-GlcNAc(1→3)-β-D-Gal(1→4)-β-D-Glc] | 348 | 5 | 362 | 2.9 | –
CC(=O)N[C@H]1[C@H](O[C@H]2[C@@H](O)[C@@H](CO)O[C@@H](O[C@H]3[C@H](O)[C@@H](NC(C)=O)[C@H](O[C@H]4[C@@H](O)[C@@H](CO)O[C@@H](O[C@H]5[C@H](O)[C@@H](NC(C)=O)[C@H](O[C@H]6[C@@H](O)[C@@H](CO)O[C@@H](O[C@H]7[C@H](O)[C@@H](O)C(O)O[C@@H]7CO)[C@@H]6O)O[C@@H]5CO)[C@@H]4O)O[C@@H]3CO)[C@@H]2O)O[C@H](CO)[C@@H](O[C@@H]2O[C@H](CO)[C@H](O)[C@H](O)[C@H]2O)[C@@H]1O (stereo partly drawn) [G8, β-D-Gal-(1→4)-β-D-GlcNAc-(1→3)-β-D-Gal-(1→4)-β-D-GlcNAc-(1→3)-β-D-Gal-(1→4)-β-D-GlcNAc-(1→3)-β-D-Gal-(1→4)-β-D-Glc] | 178 | 5.5 | 232 | 5.8 | –
CC(=O)N[C@H]1[C@H](O[C@H]2[C@@H](O)[C@@H](CO)O[C@@H](O[C@H]3[C@H](O)[C@@H](O)C(O)O[C@@H]3CO)[C@@H]2O)O[C@H](CO)[C@@H](O[C@@H]2O[C@H](CO)[C@H](O)[C@H](O)[C@H]2O)[C@@H]1O (stereo partly drawn) [G9, β-D-Gal-(1→4)-β-D-GlcNAc-(1→3)-β-D-Gal-(1→4)-β-D-Glc] | 348 | 23.2 | 439 | 12.9 | –
CC(=O)N[C@H]1[C@@H](O[C@H]2[C@@H](O)[C@@H](CO)O[C@@H](O[C@H]3[C@H](O)[C@@H](O)C(O)O[C@@H]3CO)[C@@H]2O[C@@H]2O[C@@H](C)[C@@H](O)[C@@H](O)[C@@H]2O)O[C@H](CO)[C@H](O)[C@@H]1O (stereo partly drawn) [G12, α-D-GalNAc-(1→3)-[α-L-Fuc-(1→2)]-β-D-Gal-(1→4)-β-D-Glc] | 184 | 11.3 | 333 | 10.4 | –
CC(=O)N[C@H]1[C@@H](O[C@H]2[C@@H](O)[C@@H](CO)O[C@@H](O[C@H]3[C@H](O)[C@@H](CO)O[C@@H](O[C@H]4[C@@H](O)[C@@H](CO)O[C@@H](O[C@H]5[C@H](O)[C@@H](O)C(O)O[C@@H]5CO)[C@@H]4O)[C@@H]3NC(C)=O)[C@@H]2O[C@@H]2O[C@@H](C)[C@@H](O)[C@@H](O)[C@@H]2O)O[C@H](CO)[C@H](O)[C@@H]1O (stereo partly drawn) [G13, α-D-GalNAc-(1→3)-[α-L-Fuc-(1→2)]-β-D-Gal-(1→3)-β-D-GlcNAc-(1→3)-β-D-Gal-(1→4)-β-D-Glc] | 261 | 4.6 | 261 | 2.4 | –
CC(=O)N[C@H]1[C@H](O[C@@H]2[C@H](O[C@]3(C(=O)O)C[C@H](O)[C@@H](NC(C)=O)[C@H]([C@H](O)[C@@H](CO)O[C@]4(C(=O)O)C[C@H](O)[C@@H](NC(C)=O)[C@H]([C@H](O)[C@H](O)CO)O4)O3)[C@@H](O)[C@H](O[C@H]3[C@H](O)[C@@H](O)C(O)O[C@@H]3CO)O[C@@H]2CO)O[C@H](CO)[C@H](O)[C@@H]1O (stereo partly drawn) [G29, GD2 oligosaccharide, α-D-GalNAc(1→4)-[α-D-Neu5Ac-(2→8)-α-D-Neu5Ac-(2→3)]-β-D-Gal-(1→4)-D-Glc] | – | – | – | – | Kd (Sig7-Fc [5]; [7]): 205 µM
CC(=O)N[C@H]1[C@H](O[C@@H]2[C@H](O[C@]3(C(=O)O)C[C@H](O)[C@@H](NC(C)=O)[C@H]([C@H](O)[C@@H](CO)O[C@]4(C(=O)O)C[C@H](O)[C@@H](NC(C)=O)[C@H]([C@H](O)[C@H](O)CO)O4)O3)[C@@H](O)[C@H](O[C@H]3[C@H](O)[C@@H](O)C(O)O[C@@H]3CO)O[C@@H]2CO)O[C@H](CO)[C@H](O)[C@@H]1O[C@@H]1O[C@H](CO)[C@H](O)[C@H](O)[C@H]1O (stereo partly drawn) [GD1b, GD1b oligosaccharide, β-D-Gal(1→3)-α-D-GalNAc(1→4)-[α-D-Neu5Ac-(2→8)-α-D-Neu5Ac-(2→3)]-β-D-Gal-(1→4)-D-Glc] | – | – | – | – | Kd (Sig7-Fc [5]; [7]): 1220 µM
CC(=O)N[C@H]1[C@H]([C@H](O)[C@H](O)CO)O[C@@](O[C@H](CO)[C@@H](O)[C@@H]2O[C@@](O[C@H]3[C@@H](O)[C@@H](CO)O[C@@H](O[C@H]4[C@H](O)[C@@H](O)C(O)O[C@@H]4CO)[C@@H]3O)(C(=O)O)C[C@H](O)[C@H]2NC(C)=O)(C(=O)O)C[C@@H]1O (stereo partly drawn) [GD3, GD3 oligosaccharide, α-D-Neu5Ac-(2→8)-α-D-Neu5Ac-(2→3)-β-D-Gal-(1→4)-D-Glc] | – | – | – | – | Kd (Sig7-Fc [5]; [7]): 97 µM
CC(=O)N[C@H]1[C@H](O[C@@H]2[C@H](O[C@]3(C(=O)O)C[C@H](O)[C@@H](NC(C)=O)[C@H]([C@H](O)[C@H](O)CO)O3)[C@@H](O)[C@H](O[C@H]3[C@H](O)[C@@H](O)C(O)O[C@@H]3CO)O[C@@H]2CO)O[C@H](CO)[C@H](O)[C@@H]1O[C@@H]1O[C@H](CO)[C@H](O)[C@H](O)[C@H]1O (stereo partly drawn) [GM1, GM1 oligosaccharide, β-D-Gal(1→3)-α-D-GalNAc(1→4)-[α-D-Neu5Ac-(2→3)]-β-D-Gal-(1→4)-D-Glc] | – | – | – | – | Kd (Sig7-Fc [5]; [7]): 437 µM
CC(=O)NC1C(OC2C(CO)OC(OC3C(CO)OC(O)C(O)C3O)C(O)C2OC2(C(=O)O)CC(O)C(NC(C)=O)C(C(O)C(O)CO)O2)OC(CO)C(O)C1O [GM2, GM2 oligosaccharide, α-D-GalNAc(1→4)-[α-D-Neu5Ac-(2→3)]-β-D-Gal-(1→4)-D-Glc] | – | – | – | – | Kd (Sig7-Fc [5]; [8]): 460 µM
CC(=O)NC1C(OC2C(CO)OC(OC3C(CO)OC(O)C(O)C3O)C(O)C2OC2(C(=O)O)CC(O)C(NC(C)=O)C(C(O)C(CO)OC3(C(=O)O)CC(O)C(NC(C)=O)C(C(O)C(CO)OC4(C(=O)O)CC(O)C(NC(C)=O)C(C(O)C(O)CO)O4)O3)O2)OC(CO)C(O)C1O [GT2, GT2 oligosaccharide, α-D-GalNAc(1→4)-[α-D-Neu5Ac-(2→8)-α-D-Neu5Ac-(2→8)-α-D-Neu5Ac-(2→3)]-β-D-Gal-(1→4)-D-Glc] | – | – | – | – | Kd (Sig7-Fc [5]; [8]): 235 µM
CC(=O)NC1C(O)CC(OC(CO)C(O)C2OC(OC(CO)C(O)C3OC(OC4C(O)C(CO)OC(OC5C(CO)OC(O)C(O)C5O)C4O)(C(=O)O)CC(O)C3NC(C)=O)(C(=O)O)CC(O)C2NC(C)=O)(C(=O)O)OC1C(O)C(O)CO [GT3, GT3 oligosaccharide, α-D-Neu5Ac-(2→8)-α-D-Neu5Ac-(2→8)-α-D-Neu5Ac-(2→3)-β-D-Gal-(1→4)-D-Glc] | – | – | – | – | Kd (Sig7-Fc [5]; SD): 184 µM
CC(=O)N[C@H]1[C@H](O[C@@H]2[C@H](O[C@]3(C(=O)O)C[C@H](O)[C@@H](NC(C)=O)[C@H]([C@H](O)[C@@H](CO)O[C@]4(C(=O)O)C[C@H](O)[C@@H](NC(C)=O)[C@H]([C@H](O)[C@H](O)CO)O4)O3)[C@@H](O)[C@H](O[C@H]3[C@H](O)[C@@H](O)C(O)O[C@@H]3CO)O[C@@H]2CO)O[C@H](CO)[C@H](O)[C@@H]1O (stereo partly drawn) [Glycan G29, α-D-GalNAc(1→4)-[α-D-Neu5Ac-(2→8)-α-D-Neu5Ac-(2→3)]-β-D-Gal-(1→4)-D-Glc] | – | – | – | – | Kd (Sig7-Fc [6]; G21 1.0 μM and G29 30 μM, read-out: Kd (COIN-CaR-nMS), two ligands): 184 ± 5 µM; Kd (Sig7-Fc [6]; G21 5 μM and G29 30 μM, read-out: Kd (COIN-CaR-nMS), two ligands): 240 ± 2 µM; Kd (Sig7-Fc [6]; G21 10 μM and G29 30 μM, read-out: Kd (COIN-CaR-nMS), two ligands): 240 ± 10 µM
α-D-GalNAc(1→4)-[α-D-Neu5Ac-(2→3)]-β-D-Gal-(1→4)-D-Glc [Glycan G28] | – | – | – | – | Kd (Sig7-Fc [6]; [9]): 460 ± 117 µM
α-D-Neu5Ac-(2→8)-α-D-Neu5Ac-(2→8)-α-D-Neu5Ac-(2→3)-β-D-Gal-(1→4)-D-Glc [Glycan G27] | – | – | – | – | Kd (Sig7-Fc [6]; [9]): 184 ± 41 µM
β-D-Gal(1→3)-α-D-GalNAc(1→4)-[α-D-Neu5Ac-(2→8)-α-D-Neu5Ac-(2→8)-α-D-Neu5Ac-(2→3)]-β-D-Gal-(1→4)-D-Glc [Glycan G33] | – | – | – | – | Kd (Sig7-Fc [6]; N-glycan natural libraries and purified oligosaccharides, pH 6.9, listed as GT1c): weak or no binding
